The source of these data is the supplement of paper PMC10307832.

Common to all, as to experiment: relative viability (nuclei count vs DMSO), 5 days (fraction); higher = more cells survive
Compound in the experiment “GSK-J4 + Phenformin”: CCOC(=O)CCNc1cc(N2CCc3ccccc3CC2)nc(-c2ccccn2)n1 [GSK-J4] + N=C(N)NC(=N)NCCc1ccccc1 [Phenformin] (partner 250 µM)
Summed up: (§1)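 Relative viability is defined as nuclei in treated wells over nuclei in vehicle wells. Duplicate plates were run and medians reported. Lung cancer cell lines in 1536-well plates were dosed by pin tool one day after seeding, with one drug or with a fixed anchor-drug dose plus five library-drug doses (not always all listed) in √10 steps, and nuclei were counted after 5 days.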

Compound in the experiment “GSK-J4 + Luminespib”: CCOC(=O)CCNc1cc(N2CCc3ccccc3CC2)nc(-c2ccccn2)n1 [GSK-J4] + CCNC(=O)c1noc(-c2cc(C(C)C)c(O)cc2O)c1-c1ccc(CN2CCOCC2)cc1 [Luminespib] (partner 0.01 µM)
In outline: as §1

Compound in the experiment “AZ3146 + Linsitinib”: CN1CCC(CC1)OC2=CC(=C(C=C2)NC3=NC=C4C(=N3)N(C(=O)N4C)C5CCCC5)OC [AZ3146] + C[C@]1(O)C[C@@H](c2nc(-c3ccc4ccc(-c5ccccc5)nc4c3)c3c(N)nccn32)C1 [Linsitinib] (partner 1 µM)
In outline:
as §1

Compound in the experiment “GSK-J4 + Decitabine”: CCOC(=O)CCNc1cc(N2CCc3ccccc3CC2)nc(-c2ccccn2)n1 [GSK-J4] + Nc1ncn([C@H]2C[C@H](O)[C@@H](CO)O2)c(=O)n1 [Decitabine] (partner 2 µM)
In outline: as §1

With LCLC-103H, the relative viability in the experiment with GSK-J4 + Phenformin (first compound 0.5 µM) was 0.32; with GSK-J4 + Phenformin (first compound 1.581 µM), 0.296; with GSK-J4 + Phenformin (first compound 5 µM), 0.224; in the experiment with GSK-J4 + Phenformin (first compound 15.81 µM), 0.331; with GSK-J4 + Phenformin (first compound 50 µM), 0.33; with GSK-J4 + Luminespib (first compound 0.5 µM) it was 0.96. Further, the relative viability turned out to be 0.917 in the experiment with GSK-J4 + Luminespib (first compound 1.581 µM); 1.01 with GSK-J4 + Luminespib (first compound 5 µM); 0.882 in the experiment with GSK-J4 + Luminespib (first compound 15.81 µM); 0.486 with GSK-J4 + Luminespib (first compound 50 µM); 1.06 in the experiment with AZ3146 + Linsitinib (first compound 0.08 µM); 0.978 with AZ3146 + Linsitinib (first compound 0.253 µM). In addition, the relative viability in the experiment with AZ3146 + Linsitinib (first compound 0.8 µM) is 1.16; with AZ3146 + Linsitinib (first compound 2.53 µM), 1.13; with AZ3146 + Linsitinib (first compound 8 µM), 1.1; with GSK-J4 + Decitabine (first compound 0.5 µM), 0.784; with GSK-J4 + Decitabine (first compound 1.581 µM) it was 0.624; in the experiment with GSK-J4 + Decitabine (first compound 5 µM) it was 0.786. In addition, the figures for the relative viability with GSK-J4 + Decitabine (first compound 15.81 µM) and in the experiment with GSK-J4 + Decitabine (first compound 50 µM) were 0.722 and 0.572, respectively.
On to SK-MES-1, for which the relative viability was determined as 0.582 in the experiment with GSK-J4 + Phenformin (first compound 0.5 µM); 0.585 in the experiment with GSK-J4 + Phenformin (first compound 1.581 µM); 0.594 with GSK-J4 + Phenformin (first compound 5 µM); 0.565 in the experiment with GSK-J4 + Phenformin (first compound 15.81 µM); 0.371 with GSK-J4 + Phenformin (first compound 50 µM); 0.695 with GSK-J4 + Luminespib (first compound 0.5 µM). Moreover, the relative viability with GSK-J4 + Luminespib (first compound 1.581 µM) was 0.731; with GSK-J4 + Luminespib (first compound 5 µM), 0.718; with GSK-J4 + Luminespib (first compound 15.81 µM), 0.686; in the experiment with GSK-J4 + Luminespib (first compound 50 µM) it was 0.37; in the experiment with AZ3146 + Linsitinib (first compound 0.08 µM), 1.06; with AZ3146 + Linsitinib (first compound 0.253 µM) it was 1.06. In addition, the relative viability in the experiment with AZ3146 + Linsitinib (first compound 0.8 µM) is 1.01; with AZ3146 + Linsitinib (first compound 2.53 µM), 1.09; with AZ3146 + Linsitinib (first compound 8 µM), 1.12; with GSK-J4 + Decitabine (first compound 0.5 µM), 0.389; in the experiment with GSK-J4 + Decitabine (first compound 1.581 µM), 0.359; in the experiment with GSK-J4 + Decitabine (first compound 5 µM), 0.386. Besides, the relative viability was determined as 0.321 with GSK-J4 + Decitabine (first compound 15.81 µM) and 0.323 in the experiment with GSK-J4 + Decitabine (first compound 50 µM).
On to PC-3 [JPC-3], for which the relative viability in the experiment with GSK-J4 + Phenformin (first compound 0.5 µM) came out at 0.481; with GSK-J4 + Phenformin (first compound 1.581 µM), 0.48; with GSK-J4 + Phenformin (first compound 5 µM), 0.521; with GSK-J4 + Phenformin (first compound 15.81 µM), 0.5; with GSK-J4 + Phenformin (first compound 50 µM), 0.488; with GSK-J4 + Luminespib (first compound 0.5 µM) it was 0.698. Besides, the relative viability with GSK-J4 + Luminespib (first compound 1.581 µM) turned out to be 0.552; in the experiment with GSK-J4 + Luminespib (first compound 5 µM), 0.735; with GSK-J4 + Luminespib (first compound 15.81 µM), 0.584; in the experiment with GSK-J4 + Luminespib (first compound 50 µM) it was 0.439; in the experiment with AZ3146 + Linsitinib (first compound 0.08 µM), 0.972; with AZ3146 + Linsitinib (first compound 0.253 µM), 0.96. For the same cell line, the relative viability with AZ3146 + Linsitinib (first compound 0.8 µM) is 1.01; with AZ3146 + Linsitinib (first compound 2.53 µM) it was 0.996; in the experiment with AZ3146 + Linsitinib (first compound 8 µM), 0.932; in the experiment with GSK-J4 + Decitabine (first compound 0.5 µM) it was 0.883; with GSK-J4 + Decitabine (first compound 1.581 µM) it was 0.735; in the experiment with GSK-J4 + Decitabine (first compound 5 µM), 0.801. The relative viability came to 0.876 in the experiment with GSK-J4 + Decitabine (first compound 15.81 µM) and 0.781 with GSK-J4 + Decitabine (first compound 50 µM).
Regarding COR-L 105, the relative viability is 0.408 with GSK-J4 + Phenformin (first compound 0.5 µM); 0.395 in the experiment with GSK-J4 + Phenformin (first compound 1.581 µM); 0.381 in the experiment with GSK-J4 + Phenformin (first compound 5 µM); 0.475 with GSK-J4 + Phenformin (first compound 15.81 µM); 0.578 in the experiment with GSK-J4 + Phenformin (first compound 50 µM); 0.624 with GSK-J4 + Luminespib (first compound 0.5 µM). For the same cell line, the relative viability with GSK-J4 + Luminespib (first compound 1.581 µM) amounted to 0.58; with GSK-J4 + Luminespib (first compound 5 µM), 0.702; with GSK-J4 + Luminespib (first compound 15.81 µM), 0.633; with GSK-J4 + Luminespib (first compound 50 µM), 1.01; with AZ3146 + Linsitinib (first compound 0.08 µM), 0.963; with AZ3146 + Linsitinib (first compound 0.253 µM), 1.2. Moreover, the relative viability came to 0.891 with AZ3146 + Linsitinib (first compound 0.8 µM); 0.888 in the experiment with AZ3146 + Linsitinib (first compound 2.53 µM); 0.787 with AZ3146 + Linsitinib (first compound 8 µM); 0.723 with GSK-J4 + Decitabine (first compound 0.5 µM); 0.507 with GSK-J4 + Decitabine (first compound 5 µM); 0.644 with GSK-J4 + Decitabine (first compound 15.81 µM). In addition, the relative viability with GSK-J4 + Decitabine (first compound 50 µM) amounted to 0.654.
On to EKVX, for which the relative viability in the experiment with GSK-J4 + Phenformin (first compound 0.5 µM) worked out at 0.252; in the experiment with GSK-J4 + Phenformin (first compound 1.581 µM), 0.213; with GSK-J4 + Phenformin (first compound 5 µM), 0.236; with GSK-J4 + Phenformin (first compound 15.81 µM), 0.177; with GSK-J4 + Phenformin (first compound 50 µM), 0.237; with GSK-J4 + Luminespib (first compound 0.5 µM) it was 0.824. Moreover, the relative viability in the experiment with GSK-J4 + Luminespib (first compound 1.581 µM) came out at 0.725; with GSK-J4 + Luminespib (first compound 5 µM), 0.977; with GSK-J4 + Luminespib (first compound 15.81 µM), 0.755; in the experiment with GSK-J4 + Luminespib (first compound 50 µM), 0.811; with AZ3146 + Linsitinib (first compound 0.08 µM), 0.945; with AZ3146 + Linsitinib (first compound 0.253 µM) it was 1. Moreover, the relative viability turned out to be 0.819 with AZ3146 + Linsitinib (first compound 0.8 µM); 1.09 in the experiment with AZ3146 + Linsitinib (first compound 2.53 µM); 0.95 in the experiment with AZ3146 + Linsitinib (first compound 8 µM); 0.297 with GSK-J4 + Decitabine (first compound 0.5 µM); 0.355 with GSK-J4 + Decitabine (first compound 5 µM); 0.324 with GSK-J4 + Decitabine (first compound 15.81 µM). Moreover, in the experiment with GSK-J4 + Decitabine (first compound 50 µM), the relative viability is 0.299.
